Source: paper PMC11007962, “First-in-human study of GFH018, a small molecule inhibitor of transforming growth factor-β receptor I inhibitor, in patients with advanced solid tumors” (BMC Cancer, 2024)
Marks after values point to notes of the source that are not given here.

System: advanced solid tumors
Assay: Clinical efficacy: tumor response per RECIST 1.1
Assay type: in vivo, human
Experimental: The endpoints for efficacy, including the objective response rate (ORR), disease control rate (DCR), progression-free survival (PFS), and time to progression (TTP), were assessed per RECIST 1.1. Tumor response was evaluated every two treatment cycles until disease progression, start of a new antitumor treatment, consent withdrawal, loss to follow-up, or study termination for other reasons.

[1] = 5 mg BID 14d-on/14d-off (N = 4)
[2] = 10 mg BID 14d-on/14d-off (N = 3)
[3] = 20 mg BID 14d-on/14d-off (N = 4)
[4] = 30 mg BID 14d-on/14d-off (N = 7)
[5] = 40 mg BID 14d-on/14d-off (N = 4)
[6] = 50 mg BID 14d-on/14d-off (N = 4)
[7] = 65 mg BID 14d-on/14d-off (N = 6)
[8] = 85 mg BID 14d-on/14d-off (N = 12)

## Cc1cccc(-c2nn3c(c2-c2ccc4ncnn4c2/C=C/C(N)=O)CCC3)n1 [GFH018]
[1]
  BOR: CR: 0 n (%)
  BOR: NA (no postbaseline assessments after the start date): 2 (50.0%) n (%)
  BOR: NE (not estimable): 0 n (%)
  BOR: Non-CR/Non-PD: 0 n (%)
  BOR: PD: 2 (50.0%) n (%)
  BOR: PR: 0 n (%)
  BOR: SD: 0 n (%)
  DCR (90%CI): 0 n (%)
  ORR (90%CI): 0 n (%)
[2]
  BOR: CR: 0 n (%)
  BOR: NA (no postbaseline assessments after the start date): 0 n (%)
  BOR: NE (not estimable): 0 n (%)
  BOR: Non-CR/Non-PD: 0 n (%)
  BOR: PD: 2 (66.7%) n (%)
  BOR: PR: 0 n (%)
  BOR: SD: 1 (33.3%) n (%)
  DCR (90%CI): 1 (33.3%) (0.84%, 90.57%) n (%)
  ORR (90%CI): 0 n (%)
[3]
  BOR: CR: 0 n (%)
  BOR: NA (no postbaseline assessments after the start date): 1 (25.0%) n (%)
  BOR: Non-CR/Non-PD: 0 n (%)
  BOR: PD: 1 (25.0%) n (%)
  BOR: PR: 0 n (%)
  BOR: SD: 1 (25.0%) n (%)
  DCR (90%CI): 1 (25.0%) (0.63%, 80.59%) n (%)
  ORR (90%CI): 0 n (%)
20 mg BID 14d-on/14d-off (N = 4), SD of insufficient duration
  BOR: NE (not estimable): 1 (25.0%)^e n (%)
[4]
  BOR: CR: 0 n (%)
  BOR: NA (no postbaseline assessments after the start date): 3 (42.9%) n (%)
  BOR: NE (not estimable): 0 n (%)
  BOR: Non-CR/Non-PD: 0 n (%)
  BOR: PD: 3 (42.9%) n (%)
  BOR: PR: 0 n (%)
  BOR: SD: 1 (14.3%) n (%)
  DCR (90%CI): 1 (14.3%) (0.36%, 57.87%) n (%)
  ORR (90%CI): 0 n (%)
[5]
  BOR: CR: 0 n (%)
  BOR: NA (no postbaseline assessments after the start date): 1 (25.0%) n (%)
  BOR: NE (not estimable): 0 n (%)
  BOR: Non-CR/Non-PD: 0 n (%)
  BOR: PD: 3 (75.0%) n (%)
  BOR: PR: 0 n (%)
  BOR: SD: 0 n (%)
  DCR (90%CI): 0 n (%)
  ORR (90%CI): 0 n (%)
[6]
  BOR: CR: 0 n (%)
  BOR: NA (no postbaseline assessments after the start date): 2 (50.0%) n (%)
  BOR: NE (not estimable): 0 n (%)
  BOR: Non-CR/Non-PD: 0 n (%)
  BOR: PD: 1 (25.0%) n (%)
  BOR: PR: 0 n (%)
  BOR: SD: 1 (25.0%) n (%)
  DCR (90%CI): 1 (25.0%) (0.63%, 80.59%) n (%)
  ORR (90%CI): 0 n (%)
[7]
  BOR: CR: 0 n (%)
  BOR: NA (no postbaseline assessments after the start date): 0 n (%)
  BOR: NE (not estimable): 0 n (%)
  BOR: Non-CR/Non-PD: 0 n (%)
  BOR: PD: 5 (83.3%) n (%)
  BOR: PR: 0 n (%)
  BOR: SD: 1 (16.7%) n (%)
  DCR (90%CI): 1 (16.7%) (0.42%, 64.12%) n (%)
  ORR (90%CI): 0 n (%)
85 mg BID 7d-on/7d-off (N = 6)
  BOR: CR: 0 n (%)
  BOR: NA (no postbaseline assessments after the start date): 3 (50.0%) n (%)
  BOR: NE (not estimable): 0 n (%)
  BOR: Non-CR/Non-PD: 0 n (%)
  BOR: PD: 2 (33.3%) n (%)
  BOR: PR: 0 n (%)
  BOR: SD: 1 (16.7%) n (%)
  DCR (90%CI): 1 (16.7%) (0.42%, 64.12%) n (%)
  ORR (90%CI): 0 n (%)
[8]
  BOR: CR: 0 n (%)
  BOR: NA (no postbaseline assessments after the start date): 5 (41.7%) n (%)
  BOR: NE (not estimable): 0 n (%)
  BOR: Non-CR/Non-PD: 0 n (%)
  BOR: PD: 4 (33.3%) n (%)
  BOR: PR: 0 n (%)
  BOR: SD: 3 (25.0%) n (%)
  DCR (90%CI): 3 (25.0%) (5.49%, 57.19%) n (%)
  ORR (90%CI): 0 n (%)
85 mg BID, 14 d-on/14 d-off, twelve patients
  DCR: 25.0%
85 mg BID, 14 d-on/14 d-off, twelve patients, 90% CI, 0.82–3.75
  median PFS: 1.8 months
50 enrolled patients, 33 with at least one tumor assessment
  complete response (CR) or partial response (PR): No complete response (CR) or partial response (PR) was observed
Total (N = 50)
  BOR: CR: 0 n (%)
  BOR: NA (no postbaseline assessments after the start date): 17 (34.0%) n (%)
  BOR: Non-CR/Non-PD: 0 n (%)
  BOR: PD: 23 (46.0%) n (%)
  BOR: PR: 0 n (%)
  BOR: SD: 9 (18.0%) n (%)
  DCR (90%CI): 9 (18.0%) (8.58%, 31.44%) n (%)
  ORR (90%CI): 0 n (%)
Total (N = 50), SD of insufficient duration
  BOR: NE (not estimable): 1 (2.0%)^e n (%)
One patient with thymic carcinoma, 65 mg BID
  maximum target lesion decrease: 18.4%
